Laboratory results: PubChem BioAssay (NCI)
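Test compounds were applied to cells in 96-well plates for 48 hours at 5 doses. The concentration for 50% growth inhibition is given as GI50. TGI is the concentration that stops growth completely.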

Tests used:
Experiment in all cases: NCI-60 cell line screen, 48 h
A498 renal = system: A498 renal
A549 NSCLC = system: A549 NSCLC
CAKI-1 renal = system: CAKI-1 renal
CCRF-CEM leukemia = system: CCRF-CEM leukemia
HCC-2998 colon = system: HCC-2998 colon
HOP-92 NSCLC = system: HOP-92 NSCLC
LOX IMVI melanoma = system: LOX IMVI melanoma
NCI-H522 lung = system: NCI-H522 lung
SK-OV-3 ovarian = system: SK-OV-3 ovarian
SW-620 colon = system: SW-620 colon

Row | Compound | TGI (A498 renal) | TGI (A549 NSCLC) | TGI (CAKI-1 renal) | TGI (CCRF-CEM leukemia) | TGI (HCC-2998 colon) | TGI (HOP-92 NSCLC) | TGI (LOX IMVI melanoma) | TGI (NCI-H522 lung) | TGI (SK-OV-3 ovarian) | TGI (SW-620 colon) | GI50 (A498 renal) | GI50 (A549 NSCLC) | GI50 (CAKI-1 renal) | GI50 (CCRF-CEM leukemia) | GI50 (HCC-2998 colon) | GI50 (HOP-92 NSCLC) | GI50 (LOX IMVI melanoma) | GI50 (NCI-H522 lung) | GI50 (SK-OV-3 ovarian) | GI50 (SW-620 colon)
1 | COc1ccc(-c2c(C3=NCCN3)nnn2-c2ccccc2)cc1 | > 100 µM | > 100 µM | > 100 µM | > 100 µM | > 100 µM | > 100 µM | > 100 µM | > 100 µM | > 100 µM | > 100 µM | – | – | – | – | – | – | – | – | – | –
2 | CCOC(=O)[C@@H](C)C[C@H](Cc1ccccc1)NC(=O)c1csc([C@@H](C[C@H](C(C)C)N(C)C(=O)[C@@H](NC(=O)[C@H]2C[C@H](O[Si](C)(C)C(C)(C)C)CCN2C)C(C)C)OC(C)=O)n1 | 0.89 µM | > 8.33 µM | > 8.33 µM | > 6.87 µM | 0.69 µM | 6.06 µM | > 5.08 µM | 1.03 µM | > 8.33 µM | > 8.33 µM | 0.167 µM | 0.379 µM | 0.351 µM | 0.298 µM | 0.182 µM | 0.181 µM | 0.304 µM | 0.128 µM | 0.198 µM | 0.319 µM
3 | c1ccc2c(c1)[I+]c1ccccc1-2 | > 50 µM | > 50 µM | > 50 µM | > 50 µM | > 50 µM | > 50 µM | > 50 µM | > 50 µM | > 50 µM | > 50 µM | 27.7 µM | > 50 µM | > 50 µM | > 50 µM | > 50 µM | 18.9 µM | > 50 µM | > 50 µM | > 50 µM | > 50 µM
4 | COc1cc2c(cc1C)NC(=O)/C2=C\c1cc(OC)c(OC)c(OC)c1 | > 100 µM | > 100 µM | > 100 µM | 32.1 µM | > 100 µM | 30.6 µM | > 100 µM | > 100 µM | > 100 µM | > 100 µM | 31.1 µM | > 100 µM | > 100 µM | 8.18 µM | > 100 µM | 10.4 µM | > 100 µM | > 100 µM | 83.3 µM | > 100 µM
5 | COC(=O)c1c(-c2ccccc2)cc2c3cc(-c4ccccc4)c(C(=O)OC)n3c3ccccc3n12 | > 100 µM | > 100 µM | > 100 µM | > 100 µM | > 100 µM | – | > 100 µM | > 100 µM | > 100 µM | > 100 µM | – | – | – | – | – | – | – | – | – | –
6 | O=C1C(Br)=C[C@H]2C3C=CC(Br)(C3=O)[C@@H]12 (stereo partly specified) | 37.9 µM | 76.9 µM | 24 µM | 13.7 µM | 26.2 µM | 29.7 µM | – | 18.2 µM | > 100 µM | 21.1 µM | – | – | – | – | – | – | – | – | – | –
7 | O=C(C(O)c1cn(Cc2ccccc2)c2ccccc12)N1CCCCC1 (stereo unspecified) | > 100 µM | > 100 µM | – | > 100 µM | > 100 µM | > 100 µM | > 100 µM | > 100 µM | > 100 µM | > 100 µM | – | – | – | – | – | – | – | – | – | –
8 | CN1CCN(CCSC2Cc3cc(Cl)ccc3Sc3ccccc32)CC1 (stereo unspecified) | 24.7 µM | 13.2 µM | 17.2 µM | – | 15.3 µM | 12.4 µM | 14.1 µM | 12.8 µM | 32.5 µM | 7.21 µM | – | – | – | – | – | – | – | – | – | –
